From patent publication US20140170158A1, “COMPOSITIONS AND METHODS FOR TREATING OR PREVENTING LUNG DISEASES” (THE JOHNS HOPKINS UNIVERSITY, priority 2012, published 2014)
Entries after “also recorded” stand apart in the source; their conditions may differ.

Key:
active TGF-β = experiment: ELISA of active TGF-β in lung lysates of CS-exposed mice; format: in vivo; conditions: AKR/J and C57BL/6 mice, two weeks of CS exposure, concurrent treatment
Protocol: (§1) Six- to eight-week-old AKR/J male mice were divided into 3 groups. The control group was kept in a filtered air environment, and the experimental groups were subjected to CS or CS plus losartan in drinking water. CS exposure was carried out (2 hours per day, 5 days per week) by burning 2R4F reference cigarettes (University of Kentucky, […], Ky., USA) using a smoking machine (Model TE-10; Teague Enterprises) for 6 to 7 weeks. The average concentration of total suspended particulates and carbon monoxide was 90 mg/m and 350 ppm, respectively, which was monitored on a routine basis.
(§2) The AT1 selective antagonist losartan (Merck Co.) was diluted into drinking water at concentrations of 3 mg/kg (low dose) and 30 mg/kg (high dose). Panselective TGF-β-neutralizing antibody (R&D Systems) was administered by intraperitoneal injection according to published protocol (70). Isotype-matched control antibody (R&D Systems) was administered to control mice as described above.

[1] = system: chronic CS-exposed AKR/J mice; experiment: Morphometric analysis of airspace dimension and airway attachments in chronic CS-induced emphysema model; format: in vivo
Protocol: Six- to eight-week-old AKR/J male mice were divided into 3 groups. […] CS exposure was carried out (2 hours per day, 5 days per week) by burning 2R4F reference cigarettes (University of Kentucky, […], Ky., USA) using a smoking machine (Model TE-10; Teague Enterprises) for 6 to 7 weeks. The average concentration of total suspended particulates and carbon monoxide was 90 mg/m and 350 ppm, respectively, which was monitored on a routine basis.
[…] Panselective TGF-β-neutralizing antibody (R&D Systems) was administered by intraperitoneal injection according to published protocol (70). Isotype-matched control antibody (R&D Systems) was administered to control mice as described above.
Three to five mice of each genotype were studied at the noted ages. For histologic and morphometric analyses, mouse lungs were inflated at a pressure of 25 cm H2O and fixed with 4% PFA in low molecular weight agarose. […]
Mean linear intercept measurements were performed on H&E-stained sections taken at intervals throughout both lungs. […] Mean chord lengths and mean linear intercepts were assessed by automated morphometry with a macro-operation performed by Metamorph Imaging Software (Universal Imaging, Molecular Devices). Mean airway thickness was measured directly using microscope-captured images at ×40 magnification. […]

[2] = Body weight of CS- or RA-exposed mice; format: in vivo; conditions: for CS-induced weight loss: CS-exposed mice, two months treatment
Protocol: as §1, §2

TGF-β signaling (psmad2) = experiment: Immunohistochemical staining for psmad2, a marker of TGF-β signaling, in lungs; format: in vivo; conditions: chronic CS-exposed mice
Protocol: as §1, §2
(§3) Tissue sections were deparaffinized and rehydrated in an ethanol series. Sections were blocked for non-specific binding with 3% normal serum from chicken and incubated with the primary antibodies for 1 hour at room temperature. For immunofluorescence, sections were then incubated with secondary antibodies at 1:200 for 30 minutes at room temperature (Molecular Probes). […]

[3] = system: chronic CS-exposed AKR/J mice; experiment: Measurement of mouse lung mechanics; format: in vivo
Protocol: as §1
The AT1 selective antagonist losartan (Merck Co.) was diluted into drinking water at concentrations of 3 mg/kg (low dose) and 30 mg/kg (high dose). Panselective TGF-β-neutralizing antibody (R&D Systems) was administered by intraperitoneal injection according to published protocol (70). Isotype-matched control antibody (R&D Systems) was administered to control mice as described above. […]
After being connected they were paralyzed with Succinylcholine (75 mg/kg) and ventilated with a tidal volume of 0.2 mL of 100% oxygen at a rate of 150 breathes/min, with a positive end expiratory pressure (PEEP) of 3 cm H2O. […] One minute later Rrs and Ers were measured (74). […] The expression levels of target genes were determined in triplicate from the standard curve and normalized to Gapdh mRNA level.

[4] = system: small airways of chronic CS-exposed mice; experiment: Airway histology: wall thickness, Ki67, trichrome, αSMA; format: in vivo
Protocol: Six- to eight-week-old AKR/J male mice were divided into 3 groups. The control group was kept in a filtered air environment, and the experimental groups were subjected to CS or CS plus losartan in drinking water. […] The average concentration of total suspended particulates and carbon monoxide was 90 mg/m and 350 ppm, respectively, which was monitored on a routine basis.
as §2
Mean linear intercept measurements were performed on H&E-stained sections taken at intervals throughout both lungs. Slides were coded, captured by an observer, and masked for identity for the groups. Ten to fifteen images per slide were acquired at ×20 magnification and transferred to a computer screen. Mean chord lengths and mean linear intercepts were assessed by automated morphometry with a macro-operation performed by Metamorph Imaging Software (Universal Imaging, Molecular Devices). Mean airway thickness was measured directly using microscope-captured images at ×40 magnification. Hart's staining was performed per published protocol using either van Gieson or tartrazine counterstaining (71).
Tissue sections were deparaffinized and rehydrated in an ethanol series. Sections were blocked for non-specific binding with 3% normal serum from chicken and incubated with the primary antibodies for 1 hour at room temperature. For immunofluorescence, sections were then incubated with secondary antibodies at 1:200 for 30 minutes at room temperature (Molecular Probes). Sections were counterstained with 4′,6′-diamidinio-2-phenylindole (DAPI) and mounted with Vectashield hard set mounting medium (Vector Labs). Briefly, after incubation with the primary antibody overnight at 4° C., slides were washed with PBST, incubated with an appropriate biotinylated secondary antibody (Jackson ImmunoResearch Inc.), and developed by using ABC and DAB detection reagents (Vector Laboratories). Antibodies were used at the following concentrations: Ki67 (1:50; Santa Cruz Biotechnology Inc.), nitrotyrosine (Abcam), Mac3 (BD Biosciences), CD45R (Santa Cruz Biotechnology Inc.), psmad2 (Cell Signaling Technology), TUNEL (1:25; Abcam), JNK/pJNK (Cell Signaling Technology), Akt/pAkt (Cell Signaling Technology), LAP— TGF-β1 (R&D Systems), CTGF (Abcam), Angiotensin type 1 receptor (Santa Cruz Biotechnology Inc.), and active caspase-3 (Abcam).

CS-exposed lungs = experiment: CS-induced injury measures by immunohistochemistry: oxidative stress, inflammatory cells, proliferation; format: in vivo, mice
Protocol: as §1, §2
Tissue sections were deparaffinized and rehydrated in an ethanol series. Sections were blocked for non-specific binding with 3% normal serum from chicken and incubated with the primary antibodies for 1 hour at room temperature. For immunofluorescence, sections were then incubated with secondary antibodies at 1:200 for 30 minutes at room temperature (Molecular Probes). Sections were counterstained with 4′,6′-diamidinio-2-phenylindole (DAPI) and mounted with Vectashield hard set mounting medium (Vector Labs). Briefly, after incubation with the primary antibody overnight at 4° C., slides were washed with PBST, incubated with an appropriate biotinylated secondary antibody (Jackson ImmunoResearch Inc.), and developed by using ABC and DAB detection reagents (Vector Laboratories). […]

[5] = system: alveolar epithelial apoptosis; experiment: TUNEL and active caspase-3 labeling in the airspace; format: in vivo; conditions: CS-exposed mice
Protocol: as §1, §2, §3

MMP9 = experiment: Zymography of lung extracts; format: in vivo; conditions: CS-exposed mice
Protocol: as §1, §2

MMP12 = experiment: Western blot analysis of MMP12 expression in lung lysates; format: in vivo; conditions: CS-exposed mice
Protocol: as §1, §2
(§4) Whole lung lysates were extracted in M-Per buffer from Pierce. Protein concentrations were determined using the Bio-Rad Protein Assay. Aliquots of 30-50 μg protein were boiled and then loaded onto Tris-HCL gels and transferred electrophoretically to nitrocellulose membranes. Membranes were incubated with the primary antibody for 1 hour at room temperature. Detection was performed by the Pierce West Dura ECL Detection System. […]

elastin = experiment: Elastin localization by Hart's stain; format: in vivo; conditions: CS-exposed mice
Protocol: as §1, §2

AT1 receptor = target: T1, AT1 receptor (Mus musculus, UniProt P29754); experiment: Immunohistochemistry for the AT1 receptor in murine lungs; format: in vivo, mice; conditions: 2 months CS
T1 construct: from tissue; host or cells: fixed lung sections of AKR/J mice
T1 sequence (P29754 1-359): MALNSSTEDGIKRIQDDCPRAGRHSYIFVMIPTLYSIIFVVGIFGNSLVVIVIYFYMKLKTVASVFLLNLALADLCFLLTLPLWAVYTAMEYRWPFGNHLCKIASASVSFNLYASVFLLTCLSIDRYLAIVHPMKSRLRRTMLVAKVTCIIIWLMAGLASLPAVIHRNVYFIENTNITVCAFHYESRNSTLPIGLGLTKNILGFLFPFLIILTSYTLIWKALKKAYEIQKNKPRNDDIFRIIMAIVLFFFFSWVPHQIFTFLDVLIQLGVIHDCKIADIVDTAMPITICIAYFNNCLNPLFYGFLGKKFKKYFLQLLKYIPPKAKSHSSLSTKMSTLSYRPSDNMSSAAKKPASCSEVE
Protocol: as §1, §2

[6] = system: lung gene expression pathways; experiment: Expression profile analysis of whole lung RNA; format: in vivo, mice; conditions: 2 months CS plus losartan
Protocol: Six- to eight-week-old AKR/J male mice were divided into 3 groups. The control group was kept in a filtered air environment, and the experimental groups were subjected to CS or CS plus losartan in drinking water. CS exposure was carried out (2 hours per day, 5 days per week) by burning 2R4F reference cigarettes (University of Kentucky, […], Ky., USA) using a smoking machine (Model TE-10; Teague Enterprises) for 6 to 7 weeks. […] Panselective TGF-β-neutralizing antibody (R&D Systems) was administered by intraperitoneal injection according to published protocol (70). Isotype-matched control antibody (R&D Systems) was administered to control mice as described above. Total RNA was extracted from the designated murine lungs, six in each treatment group, using the Trizol Reagent method (Invitrogen, Carlsbad, Calif. 92008, cat. no. 15596-026). Additional purification was performed on RNAeasy columns (Qiagen, Valencia, Calif. 913555, cat. no. 74104). The quality of total RNA samples was assessed using an Agilent 2100 Bioanalyzer (Agilent Technologies, Palo Alto, Calif.). The six RNA samples from each time point were pooled into two groups comprised of three murine specimens. […] The hybridized biotinylated cRNA was detected with streptavidin-Cy3 and quantitated using Illumina's BeadStation 500GX Genetic Analysis Systems scanner. […]

Akt, JNK, p38 = experiment: Immunoblotting of activated and total Akt, JNK and p38 in lung lysates; format: in vivo, mice; conditions: CS-exposed lungs, attenuated by CS
Protocol: as §1, §2, §4

CCCCc1nc(Cl)c(CO)n1Cc1ccc(-c2ccccc2-c2nn[nH]n2)cc1 [losartan]
active TGF-β in lung lysates by ELISA (active TGF-β): normalized TGF-β in both strains
airspace dimension (mean linear intercept) ([1]; 2 months CS, concurrent treatment (losartan 0.6 or 1.2 g/l in drinking water; antibody 10 mg/kg/wk)): marked reduction in the airspace dimension; also recorded: attenuate destructive airspace enlargement
airway alveolar attachments, a measure of airspace destruction ([1]; CS-exposed): recovery with losartan treatment
CS-induced weight loss [2]: not improved
CS-induced weight loss ([2]; listed as Losartan): does not rescue CS-induced weight loss
body weight of RA-exposed mice ([2]; room air-exposed mice): did not alter body weight
TGF-β signaling (phosphorylated smad2 in alveolar and airway epithelium) (TGF-β signaling (psmad2)): normalized with losartan treatment; also recorded: inhibit chronic CS-induced TGF-β signaling in the lung
lung elastance [3]: normalized
lung size (total lung capacity) [3]: normalized
airway epithelial thickening (airway mucosal thickness) ([4]; 2 months CS, small airways of similar size): normalized
airway epithelial proliferation (Ki67 staining) ([4]; CS-exposed mice): trend toward reduction
density and abundance of αSMA-producing smooth muscle cells surrounding the small airways ([4]; data not shown): not changed
peribronchiolar collagen deposition (trichrome) ([4]; mice exposed to 3 months of CS): normalized collagen deposition
inflammatory cell infiltration (alveolar macrophage and lymphocyte numbers) (CS-exposed lungs; AKR/J mice, CS-exposed lungs): reduced inflammatory cell infiltration
oxidative stress (nitrotyrosine and 8-deoxyguanine immunostaining) (CS-exposed lungs; AKR/J mice, CS-exposed lungs): normalized oxidative stress
airspace epithelial cell proliferation reduced by CS (CS-exposed lungs; CS-exposed mice): did not normalize
TUNEL labeling in the airspace [5]: attenuated
active caspase-3 labeling in the airspace [5]: attenuated
MMP9 activation (MMP9): normalized
MMP12 expression in the lungs (MMP12): normalized
elastin fragmentation in the airspaces (elastin): improved with losartan treatment
AT1 staining in the airspace walls (AT1 receptor): normalized
oxidoreductase, B cell receptor signaling, chemokine signaling, and cytokine receptor interaction pathways (induced with CS) [6]: repressed with losartan treatment
stress response and MAPK pathway genes (downregulated with CS) [6]: induced with losartan treatment
JNK and p38 activation (Akt, JNK, p38): only Akt activation was normalized
